Assay results reported in the supplement of paper PMC11061612.

Assays:
Carboplatin = compound: C1CC(C1)(C(=O)[O-])C(=O)[O-].N.N.[Pt+2] [Carboplatin]; conditions: max 10 µM
How it was run: (§1)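 Cancer cell lines were plated in 1536-well plates in 7.5 μl of DMEM/F12 or RPMI with 10% FBS and kept 24 hours at 37°C and 5% CO2 before 72 hours of dosing, with final DMSO typically 0.2%. CellTiter-Glo 2.0 luminescence measured viability, scaled between blank-well and DMSO-well means. Dose responses were fitted to a two-parameter logistic curve with a non-linear mixed effects model. This fit gives the single-agent IC50.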

AZD5363 = compound: C1CN(CCC1(C(=O)N[C@@H](CCO)C2=CC=C(C=C2)Cl)N)C3=NC=NC4=C3C=CN4 [AZD5363]; conditions: max 10 µM
How it was run: as §1

AZD1775 = compound: C=CCn1c(=O)c2cnc(Nc3ccc(N4CCN(C)CC4)cc3)nc2n1-c1cccc(C(C)(C)O)n1 [AZD1775]; conditions: max 3 µM
How it was run: as §1

Trametinib = compound: CC(=O)Nc1cccc(-n2c(=O)n(C3CC3)c(=O)c3c(Nc4ccc(I)cc4F)n(C)c(=O)c(C)c32)c1 [Trametinib]; conditions: max 1 µM
How it was run: as §1

Paclitaxel = compound: CC(=O)O[C@H]1C(=O)[C@@]2(C)[C@H]([C@H](OC(=O)c3ccccc3)[C@]3(O)C[C@H](OC(=O)[C@H](O)[C@@H](NC(=O)c4ccccc4)c4ccccc4)C(C)=C1C3(C)C)[C@]1(OC(C)=O)CO[C@@H]1C[C@@H]2O [Paclitaxel]; conditions: max 3 µM
How it was run: as §1

Palbociclib = compound: CC(=O)c1c(C)c2cnc(Nc3ccc(N4CCNCC4)cn3)nc2n(C2CCCC2)c1=O [Palbociclib]; conditions: max 10 µM
How it was run: as §1

AZD1390 = compound: CC(C)n1c(=O)n(C)c2cnc3cc(F)c(-c4ccc(OCCCN5CCCCC5)nc4)cc3c21 [AZD1390]; conditions: max 0.3 µM
How it was run: as §1

Venetoclax = compound: CC1(C)CCC(CN2CCN(c3ccc(C(=O)NS(=O)(=O)c4ccc(NCC5CCOCC5)c([N+](=O)[O-])c4)c(Oc4cnc5[nH]ccc5c4)c3)CC2)=C(c2ccc(Cl)cc2)C1 [Venetoclax]; conditions: max 1 µM
How it was run: as §1

Dasatinib = compound: CC1=C(C(=CC=C1)Cl)NC(=O)C2=CN=C(S2)NC3=CC(=NC(=N3)C)N4CCN(CC4)CCO [Dasatinib]; conditions: max 2 µM
How it was run: as §1

SG3199 = compound: CC1=CN2[C@@H](C1)C=NC3=CC(=C(C=C3C2=O)OC)OCCCCCOC4=C(C=C5C(=C4)N=C[C@@H]6CC(=CN6C5=O)C)OC [SG3199]; conditions: max 0.001 µM
How it was run: as §1

AZD2811 = compound: CCN(CCO)CCCOc1ccc2c(Nc3cc(CC(=O)Nc4cccc(F)c4)[nH]n3)ncnc2c1 [AZD2811]; conditions: max 1 µM
How it was run: as §1

SN-38 = compound: CCc1c2c(nc3ccc(O)cc13)-c1cc3c(c(=O)n1C2)COC(=O)[C@]3(O)CC [SN-38]; conditions: max 0.3 µM
How it was run: as §1

AZD0156 = compound: CN(C)CCCOc1ccc(-c2ccc3ncc4c(c3c2)n(C2CCOCC2)c(=O)n4C)cn1 [AZD0156]; conditions: max 3 µM
How it was run: as §1

AZD4320 = compound: CN(CC[C@H](CSC1=CC=CC=C1)NC2=C(C=C(C=C2)S(=O)(=O)NC(=O)C3=CC=C(C=C3)N4CCC(CC4)[C@H](C5=CC=CC=C5C6=CC=C(C=C6)Cl)O)S(=O)(=O)C(F)(F)F)CCO [AZD4320]; conditions: max 1 µM
How it was run: as §1

Alisertib = compound: COc1cc(Nc2ncc3c(n2)-c2ccc(Cl)cc2C(c2c(F)cccc2OC)=NC3)ccc1C(=O)O [Alisertib]; conditions: max 10 µM
How it was run: as §1

Etoposide = compound: COc1cc([C@@H]2c3cc4c(cc3[C@@H](O[C@@H]3O[C@@H]5CO[C@@H](C)O[C@H]5[C@H](O)[C@H]3O)[C@H]3COC(=O)[C@H]23)OCO4)cc(OC)c1O [Etoposide]; conditions: max 10 µM
How it was run: as §1

Gefitinib = compound: COc1cc2ncnc(Nc3ccc(F)c(Cl)c3)c2cc1OCCCN1CCOCC1 [Gefitinib]; conditions: max 10 µM
How it was run: as §1

Prexasertib = compound: COc1cccc(OCCCN)c1-c1cc(Nc2cnc(C#N)cn2)n[nH]1 [Prexasertib]; conditions: max 1 µM
How it was run: as §1

Doxorubicin = compound: COc1cccc2c1C(=O)c1c(O)c3c(c(O)c1C2=O)C[C@@](O)(C(=O)CO)C[C@@H]3O[C@H]1C[C@H](N)[C@H](O)[C@H](C)O1 [Doxorubicin]; conditions: max 1 µM
How it was run: as §1

AZD5153 = compound: COc1nnc2ccc(N3CCC(c4ccc(OCCN5CCN(C)C(=O)[C@H]5C)cc4)CC3)nn12 [AZD5153]; conditions: max 1 µM
How it was run: as §1

Lapatinib = compound: CS(=O)(=O)CCNCc1ccc(-c2ccc3ncnc(Nc4ccc(OCc5cccc(F)c5)c(Cl)c4)c3c2)o1 [Lapatinib]; conditions: max 10 µM
How it was run: as §1

AZD8186 = compound: C[C@@H](Nc1cc(F)cc(F)c1)c1cc(C(=O)N(C)C)cc2c(=O)cc(N3CCOCC3)oc12 [AZD8186]; conditions: max 10 µM
How it was run: as §1

Crizotinib = compound: C[C@@H](Oc1cc(-c2cnn(C3CCNCC3)c2)cnc1N)c1c(Cl)ccc(F)c1Cl [Crizotinib]; conditions: max 10 µM
How it was run: as §1

Savolitinib = compound: C[C@@H](c1ccc2nccn2c1)n1nnc2ncc(-c3cnn(C)c3)nc21 [Savolitinib]; conditions: max 1 µM
How it was run: as §1

AZD6738 = compound: C[C@@H]1COCCN1C2=NC(=NC(=C2)C3(CC3)[S@](=N)(=O)C)C4=C5C=CNC5=NC=C4 [AZD6738]; conditions: max 10 µM
How it was run: as §1

AZD5991 = compound: Cc1c2c(nn1C)CSCc1cc(n(C)n1)CSc1cc(c3ccccc3c1)OCCCc1c(C(=O)O)n(C)c3c-2c(Cl)ccc13 [AZD5991]; conditions: max 1 µM
How it was run: as §1

AZD7648 = compound: Cc1cc2ncnn2cc1Nc1ncc2c(n1)n(C1CCOCC1)c(=O)n2C [AZD7648]; conditions: max 10 µM
How it was run: as §1

Taselisib = compound: Cc1nc(-c2cn3c(n2)-c2ccc(-c4cnn(C(C)(C)C(N)=O)c4)cc2OCC3)n(C(C)C)n1 [Taselisib]; conditions: max 10 µM
How it was run: as §1

Selumetinib = compound: Cn1cnc2c(F)c(Nc3ccc(Br)cc3Cl)c(C(=O)NOCCO)cc21 [Selumetinib]; conditions: max 10 µM
How it was run: as §1

SRA737 = compound: N#Cc1cnc(Nc2cc(NC[C@H]3CNCCO3)c(C(F)(F)F)cn2)cn1 [SRA737]; conditions: max 10 µM
How it was run: as §1

MK-2206 = compound: NC1(c2ccc(-c3nc4ccn5c(=O)[nH]nc5c4cc3-c3ccccc3)cc2)CCC1 [MK-2206]; conditions: max 10 µM
How it was run: as §1

Gemcitabine = compound: Nc1ccn([C@@H]2O[C@H](CO)[C@@H](O)C2(F)F)c(=O)n1 [Gemcitabine]; conditions: max 0.3 µM
How it was run: as §1

[1] = compound: O=C(Nc1ccc2[nH]nc(-c3ccncc3)c2c1)[C@@H]1CCN(CC(=O)N2CCN(c3ccc(-c4ncccn4)cc3)CC2)C1; conditions: max 5 µM
How it was run: as §1

Olaparib = compound: O=C(c1cc(Cc2n[nH]c(=O)c3ccccc23)ccc1F)N1CCN(C(=O)C2CC2)CC1 [Olaparib]; conditions: max 10 µM
How it was run: as §1

5-Fluorouracil = compound: O=c1[nH]cc(F)c(=O)[nH]1 [5-Fluorouracil]; conditions: max 20 µM
How it was run: as §1

Row | Cell Line | IC50, cell viability 72 h (Carboplatin) | IC50, cell viability 72 h (AZD5363) | IC50, cell viability 72 h (AZD1775) | IC50, cell viability 72 h (Trametinib) | IC50, cell viability 72 h (Paclitaxel) | IC50, cell viability 72 h (Palbociclib) | IC50, cell viability 72 h (AZD1390) | IC50, cell viability 72 h (Venetoclax) | IC50, cell viability 72 h (Dasatinib) | IC50, cell viability 72 h (SG3199) | IC50, cell viability 72 h (AZD2811) | IC50, cell viability 72 h (SN-38) | IC50, cell viability 72 h (AZD0156) | IC50, cell viability 72 h (AZD4320) | IC50, cell viability 72 h (Alisertib) | IC50, cell viability 72 h (Etoposide) | IC50, cell viability 72 h (Gefitinib) | IC50, cell viability 72 h (Prexasertib) | IC50, cell viability 72 h (Doxorubicin) | IC50, cell viability 72 h (AZD5153) | IC50, cell viability 72 h (Lapatinib) | IC50, cell viability 72 h (AZD8186) | IC50, cell viability 72 h (Crizotinib) | IC50, cell viability 72 h (Savolitinib) | IC50, cell viability 72 h (AZD6738) | IC50, cell viability 72 h (AZD5991) | IC50, cell viability 72 h (AZD7648) | IC50, cell viability 72 h (Taselisib) | IC50, cell viability 72 h (Selumetinib) | IC50, cell viability 72 h (SRA737) | IC50, cell viability 72 h (MK-2206) | IC50, cell viability 72 h (Gemcitabine) | IC50, cell viability 72 h [1] | IC50, cell viability 72 h (Olaparib) | IC50, cell viability 72 h (5-Fluorouracil)
1 | EB-3 (Burkitt's Lymphoma) | > 10000 nM | > 10000 nM | 555 nM | > 1000 nM | 88.7 nM | > 10000 nM | > 300 nM | > 1000 nM | > 2000 nM | > 1 nM | > 1000 nM | 52.9 nM | > 3000 nM | > 1000 nM | > 10000 nM | 1020 nM | > 10000 nM | 86.4 nM | 194 nM | 128 nM | > 10000 nM | > 10000 nM | 7290 nM | > 1000 nM | 7040 nM | > 1000 nM | > 10000 nM | > 10000 nM | > 10000 nM | > 10000 nM | > 10000 nM | > 300 nM | > 5000 nM | > 10000 nM | > 20000 nM
2 | FLO-1 (Esophageal Adenocarcinoma) | > 10000 nM | > 10000 nM | 266 nM | > 1000 nM | 5.42 nM | > 10000 nM | > 300 nM | > 1000 nM | 64.8 nM | > 1 nM | > 1000 nM | 201 nM | > 3000 nM | > 1000 nM | 7300 nM | 2550 nM | > 10000 nM | 99.3 nM | 225 nM | 793 nM | > 10000 nM | > 10000 nM | 9360 nM | > 1000 nM | > 10000 nM | > 1000 nM | > 10000 nM | 8830 nM | > 10000 nM | > 10000 nM | > 10000 nM | 93.8 nM | > 5000 nM | > 10000 nM | 7080 nM
3 | KYM-1 (Rhabdomyosarcoma) | > 10000 nM | 7860 nM | 926 nM | > 1000 nM | 5.57 nM | 522 nM | > 300 nM | > 1000 nM | > 2000 nM | > 1 nM | > 1000 nM | 23.5 nM | > 3000 nM | > 1000 nM | > 10000 nM | 668 nM | > 10000 nM | 33.8 nM | 485 nM | 54.8 nM | > 10000 nM | > 10000 nM | 2940 nM | > 1000 nM | 2640 nM | > 1000 nM | > 10000 nM | > 10000 nM | > 10000 nM | 846 nM | > 10000 nM | 5.74 nM | > 5000 nM | > 10000 nM | 8560 nM
4 | KYSE-70 (Esophageal Squamous Cell Carcinoma) | > 10000 nM | > 10000 nM | > 3000 nM | > 1000 nM | > 3000 nM | > 10000 nM | > 300 nM | > 1000 nM | > 2000 nM | > 1 nM | > 1000 nM | > 300 nM | > 3000 nM | > 1000 nM | > 10000 nM | > 10000 nM | > 10000 nM | 241 nM | > 1000 nM | > 1000 nM | > 10000 nM | > 10000 nM | > 10000 nM | > 1000 nM | > 10000 nM | > 1000 nM | > 10000 nM | 4070 nM | > 10000 nM | > 10000 nM | > 10000 nM | > 300 nM | > 5000 nM | > 10000 nM | > 20000 nM
5 | LAMA-84 (Chronic Myelogenous Leukemia) | > 10000 nM | > 10000 nM | 351 nM | 16.3 nM | 37 nM | 3090 nM | > 300 nM | > 1000 nM | < 2 nM | > 1 nM | > 1000 nM | 24.6 nM | > 3000 nM | 486 nM | 305 nM | 8280 nM | > 10000 nM | 17.3 nM | > 1000 nM | 146 nM | > 10000 nM | > 10000 nM | 527 nM | > 1000 nM | 2020 nM | > 1000 nM | > 10000 nM | > 10000 nM | 1570 nM | 2110 nM | 5120 nM | 24.6 nM | 915 nM | > 10000 nM | > 20000 nM
